Values quoted from earlier work in patent US11571429B2, “Method and compounds for treating peripheral neuropathy” (UPEXMED CO. LTD., priority 2017, dated 2023).

System: diabetic neuropathy pain
Conditions: taken orally

CN(C)CCC=C1c2ccccc2CCc2ccccc21 [Amitriptyline, amitriptyline]
NNT; number of patients needed to treat for at least 50% pain relief: 1.3
